System: SK-BR-3 cells
Assay: Inhibition of proliferation, MTT assay
Type: cell-based, human
Details: 20 nM, positive control
Description: The MTT assay is a non-radioactive assay based on the cleavage of the soluble yellow tetrazolium salt MTT (3-[4,5-Dimethylthiazol-2-yl]-2,5-diphenyltetrazolium bromide; Thiazolyl Blue) by mitochondrial dehydrogenases of viable cells. […] The absorbance signal is a direct measure for viable cells in the culture.
Human IgG1 or medium alone served as negative controls. Briefly, SK-BR-3 cells were grown for 2 days in 96-well flat bottom plates. […] The supernatant was completely removed and MTT was added. Cells were incubated for 2 hours with MTT at 37° C. in a humidified CO2 incubator. The supernatant was removed and cells were lysed using HCI and 2-propanol containing lysis buffer for 1 h at room temperature in the dark. Absorbance at 570 nm/630 nm was measured in a plate reader Infinite F200 (Tecan Austria GmbH).
Proliferation after 4 days of incubation with the antibodies was calculated relative to the proliferation in the medium control.

Structure (SMILES): CC(=O)O[C@H]1C(=O)[C@@]2(C)[C@H]([C@H](OC(=O)c3ccccc3)[C@]3(O)C[C@H](OC(=O)[C@H](O)[C@@H](NC(=O)c4ccccc4)c4ccccc4)C(C)=C1C3(C)C)[C@]1(OC(C)=O)CO[C@@H]1C[C@@H]2O [Taxol]
- proliferation compared to the medium control: 6%

Reference: patent US20180028680A1, “GLYCOOPTIMIZED ANTIBODY DRUG CONJUGATES” (GLYCOTOPE GMBH, priority 2015, published 2018)
